Patent US4992449A, “7-(substituted)cycloalkylamino-1 -(substituted)-6-fluoro-1,4-dihydro-4-oxo-3-quinolinecarboxylic acids” (American Cyanamid Company, priority 1990, dated 1991)
≈ marks a conversion by molar mass, not a printed value. Where two headings read alike, the source gives them in different places.

Columns and labels:
Assay in all cases: In vitro antibacterial MIC, agar plate dilution
Assay type in all cases: cell-based
[1] = tested on: Proteus rettgeri IO 83-21; details: Providencia rettgeri, IO8321, Mueller-Hinton agar, 10^4 CFU, 18 hours, 35° C.
Experimental: (§1) The in vitro antimicrobial spectrum of the compounds of this invention were determined by the agar plate dilution method with Mueller-Hinton agar and an inoculum of each test organism of approximately 10^4 colony forming units delivered by the Steers replicating device. The minimal inhibitory concentration (MIC) in mcg/ml is defined as the lowest concentration of test compound that inhibited visible growth after 18 hours incubation at 35° C. Results are given in Table I, with the test compounds identified by the number of their hereinafter described examples

[2] = tested on: Streptococcus faecalis UCI 85-30; details: Enterococcus faecalis, UCI8530, Mueller-Hinton agar, 10^4 CFU, 18 hours, 35° C.
Experimental: as §1

[3] = tested on: Moranella morganii CMC 84-38; details: Mueller-Hinton agar, 10^4 CFU, 18 hours, 35° C.
Experimental: as §1

[4] = tested on: Serratia marcescens IO 83-63; details: IO8363, Mueller-Hinton agar, 10^4 CFU, 18 hours, 35° C.
Experimental: as §1

[5] = tested on: Staphylococcus aureus VGH 84-45; details: VGH8445, 18 h, Table II, read-out: MIC
Experimental: as §1

[6] = tested on: Pseudomonas aeruginosa LL-1244; details: Pseudomonas aeruginosa, LL1244, 18 h, Table II, read-out: MIC
Experimental: as §1

[7] = tested on: Enterobacter cloacae VGH 84-39; details: VGH8439, Mueller-Hinton agar, 10^4 CFU, 18 hours, 35° C.
Experimental: as §1

[8] = tested on: Escherichia coli CMC 84-50; details: CMC8450, Mueller-Hinton agar, 10^4 CFU, 18 hours, 35° C.
Experimental: as §1

[9] = tested on: Serratia marcescens CMC 83-74; details: CMC8374, Mueller-Hinton agar, 10^4 CFU, 18 hours, 35° C.
Experimental: as §1

[10] = tested on: Klebsiella neumoniae CMC 84-31; details: CMC8431, Mueller-Hinton agar, 10^4 CFU, 18 hours, 35° C.
Experimental: as §1

[11] = tested on: Serratia marcescens VGH 84-30; details: VGH8430, 18 h, Table II, read-out: MIC
Experimental: as §1

[12] = tested on: Pseudomonas aeruginosa VGH 84-3; details: VGH843, Mueller-Hinton agar, 10^4 CFU, 18 hours, 35° C.
Experimental: as §1

[13] = tested on: Excherichia coli LL 311; details: 18 h, Table II, read-out: MIC
Experimental: as §1

[14] = tested on: Citrobacter diversus K 82-24; details: Citrobacter koseri, K8224, Mueller-Hinton agar, 10^4 CFU, 18 hours, 35° C.
Experimental: as §1

[15] = tested on: Morganella morganii MOR 84-45; details: MOR8445, Mueller-Hinton agar, 10^4 CFU, 18 hours, 35° C.
Experimental: as §1

[16] = tested on: Excherichia coli CMC 84-11; details: 18 h, Table II, read-out: MIC
Experimental: as §1

[17] = tested on: Streptococcus faecalis UCI 85-19; details: Enterococcus faecalis, UCI8519, 18 h, Table II, read-out: MIC
Experimental: as §1

[18] = tested on: Morganella morganii CMC 84-37; details: CMC8437, 18 h, Table II, read-out: MIC
Experimental: as §1

[19] = tested on: Staphylococcus faecalis VGH 84-69; details: VGH8469, Mueller-Hinton agar, 10^4 CFU, 18 hours, 35° C.
Experimental: as §1

[20] = tested on: Staphylococcus aureus K 82-26; details: K8226, Mueller-Hinton agar, 10^4 CFU, 18 hours, 35° C.
Experimental: as §1

[21] = tested on: Pseudomonas aeruginosa CMC 83-20; details: CMC8320, Mueller-Hinton agar, 10^4 CFU, 18 hours, 35° C.
Experimental: as §1

[22] = tested on: Escherichia coli ATCC 25922; details: Escherichia coli, ATCC25922, 18 h, read-out: MIC
Experimental: as §1

[23] = tested on: Staphylococcus aureus VGH 84-47; details: VGH8447, Mueller-Hinton agar, 10^4 CFU, 18 hours, 35° C.
Experimental: as §1

[24] = tested on: Escherichia coli VGH 84-19; details: VGH8419, Mueller-Hinton agar, 10^4 CFU, 18 hours, 35° C.
Experimental: as §1

[25] = tested on: Staphylococcus aureus Smith 1; details: Staphylococcus aureus, SMITH1, 18 h, Table II, read-out: MIC
Experimental: as §1

[26] = tested on: Klebsiella neumoniae IO 83-5; details: IO835, Mueller-Hinton agar, 10^4 CFU, 18 hours, 35° C.
Experimental: as §1

[27] = tested on: Klebsiella neumoniae MOR 84-24; details: MOR8424, Mueller-Hinton agar, 10^4 CFU, 18 hours, 35° C.
Experimental: as §1

[28] = tested on: Staphylococcus faecalis CMC 83-120; details: CMC83120, Mueller-Hinton agar, 10^4 CFU, 18 hours, 35° C.
Experimental: as §1

[29] = tested on: Providencia stuartii CMC 83-3; details: CMC833, Mueller-Hinton agar, 10^4 CFU, 18 hours, 35° C.
Experimental: as §1

[30] = tested on: Moranella morganii VGH 84-12; details: Mueller-Hinton agar, 10^4 CFU, 18 hours, 35° C.
Experimental: as §1

[31] = Table I, Escherichia coli ATCC 25922, Mueller-Hinton agar, 10^4 CFU, 18 hours, 35° C.
[32] = Table II, Excherichia coli ATCC 25922

SMILES	MIC [1] [µg/mL]	MIC [2] [µg/mL]	MIC [3] [µg/mL]	MIC [4] [µg/mL]	MIC [5] [µg/mL]	MIC [6] [µg/mL]	MIC [7] [µg/mL]	MIC [8] [µg/mL]	MIC [9] [µg/mL]	MIC [10] [µg/mL]	MIC [11] [µg/mL]	MIC [12] [µg/mL]	MIC [13] [µg/mL]	MIC [14] [µg/mL]	MIC [15] [µg/mL]	MIC [16] [µg/mL]	MIC [17] [µg/mL]	MIC [18] [µg/mL]	MIC [19] [µg/mL]	MIC [20] [µg/mL]	further results
N[C@H]1CCC[C@H]1Nc1cc2c(cc1F)c(=O)c(C(=O)O)cn2-c1ccc(F)cc1 (relative stereo) [Example 3]	4 (≈ 10 µM)	> 16	8 (≈ 20 µM)	4 (≈ 10 µM)	4 (≈ 10 µM)	16 (≈ 40.1 µM)	2 (≈ 5.01 µM)	4 (≈ 10 µM)	> 16	4 (≈ 10 µM)	8 (≈ 20 µM)	> 16	1 (≈ 2.5 µM)	2 (≈ 5.01 µM)	4 (≈ 10 µM)	1 (≈ 2.5 µM)	64 (≈ 160 µM)	4 (≈ 10 µM)	> 16	4 (≈ 10 µM)	MIC [21]: > 16 µg/mL; MIC [22, 31]: 2 µg/mL (≈ 5.01 µM); MIC [22, 32]: 1 µg/mL (≈ 2.5 µM); MIC [23]: 4 µg/mL (≈ 10 µM); MIC [24]: 2 µg/mL (≈ 5.01 µM); MIC [25]: 2 µg/mL (≈ 5.01 µM); MIC [26]: 4 µg/mL (≈ 10 µM); MIC [27]: 4 µg/mL (≈ 10 µM); MIC [28]: > 16 µg/mL; MIC [29]: > 16 µg/mL; MIC [30]: 4 µg/mL (≈ 10 µM)
CCn1cc(C(=O)O)c(=O)c2cc(F)c(N[C@@H]3CCC[C@@H]3N)cc21 (relative stereo) [Example 4, Cis-7-[(2-Aminocyclopentyl)amino]-1-ethyl-6-fluoro-1,4-dihydro-4-oxo-3-quinolinecarboxylic acid]	2 (≈ 6 µM)	4 (≈ 12 µM)	1 (≈ 3 µM)	1 (≈ 3 µM)	64 (≈ 192 µM)	32 (≈ 96 µM)	1 (≈ 3 µM)	2 (≈ 6 µM)	> 16	2 (≈ 6 µM)	16 (≈ 48 µM)	> 16	2 (≈ 6 µM)	0.5 (≈ 1.5 µM)	0.5 (≈ 1.5 µM)	2 (≈ 6 µM)	32 (≈ 96 µM)	4 (≈ 12 µM)	4 (≈ 12 µM)	1 (≈ 3 µM)	MIC [21]: > 16 µg/mL; MIC [22, 31]: 0.5 µg/mL (≈ 1.5 µM); MIC [22, 32]: 2 µg/mL (≈ 6 µM); MIC [23]: 2 µg/mL (≈ 6 µM); MIC [24]: 1 µg/mL (≈ 3 µM); MIC [25]: 8 µg/mL (≈ 24 µM); MIC [26]: 2 µg/mL (≈ 6 µM); MIC [27]: 2 µg/mL (≈ 6 µM); MIC [28]: 4 µg/mL (≈ 12 µM); MIC [29]: > 16 µg/mL; MIC [30]: 2 µg/mL (≈ 6 µM)
